Earlier results as cited in patent publication US10105415B2, “Compositions comprising granulocyte-macrophage colony-stimulating factor for the treatment of inflammatory bowel disease” (priority 2014, dated 2018).

Experiments:
[1] = system: resistant bacterial strains; details: controlled clinical trials, oral or intravenous
[2] = system: strains of organisms from the susceptible genera
Pseudomonas aeruginosa = details: controlled clinical trials
[3] = adverse effect frequency
[4] = system: polymorphonuclear leukocytes
Crohn's disease = details: systemic (intravenous or subcutaneous), CD patients
[5] = given subcutaneously or infused intravenously for systemic effect
[6] = oral / local
[7] = given orally
[8] = not given; remark: listed apart in the source

Compound	tolerability / irritation [6]	pH of 5% solution	bioavailability [7]	solubility in water [8]	further results
C[C@@H]1O[C@@H]1P(=O)(O)O [Fosfomycin, [(2R,3S)-3-methyloxiran-2-yl]phosphonic acid]					appearance of resistant bacterial strains, overall [1]: 3.0%; synergistic effect, share of tested strains ([2]; early studies, various antibiotic combinations): 70-100%; synergy rates ([2]; subsequent more extensive studies): 36-74%; appearance of resistant bacterial strains, maximum (Pseudomonas aeruginosa): ≤ 15%; eosinophilia [3]: 0.2%; transient rashes (evidence of allergy) [3]: 0.3 % of cases; transiently raised liver enzymes [3]: 0.3 % of cases; concentration in polymorphonuclear leukocytes relative to extracellular fluid [4]: twice
GM-CSF: Monomeric glycoprotein of 127 amino-acid residues (SEQ ID NO: 2), colony-stimulating factor; recombinant forms regramostim, sargramostim, molgramostim					primary therapeutic endpoints (Crohn's disease): failed to achieve their primary therapeutic endpoints; plasma concentrations achieved [5]: > 1 ng/mL
C[C@@H]1O[C@@H]1P(=O)(O)O [Fosfomycin disodium]	locally irritant if un-neutralized	9.0-10.5	high bioavailability	highly soluble in water	
C[C@@H]1O[C@@H]1P(=O)(O)O.NC(CO)(CO)CO [Fosfomycin trometamol]	well tolerated	3.5-5.5	about 40%	highly soluble in water	
C[C@@H]1O[C@@H]1P(=O)(O)O [Fosfomycin calcium monohydrate]	less irritating to the stomach		≥ 12%	sparingly soluble in water	pH of 0.4% solution (0.4% solution): 8.1-9.6
